In this test the target is human dUTPase (Homo sapiens (Human), UniProt P33316). In words: Human dUTPase inhibitory effect: production of [5-3H]dUMP from [5-3H]dUTP, measured by HPLC with flow scintillation. The following applies: [5-3H]dUMP production from [5-3H]dUTP, 37° C., 15 minutes. It counts as biochemical. Here is the method:
The inhibitory activity of the compound of the present invention against human dUTPase was determined by measuring the production of [5-^3H]deoxyuridine monophosphate (hereinafter, referred to as [5-^3H]dUMP) from [5-^3H]deoxyuridine triphosphate (hereinafter, referred to as [5-^3H]dUTP) according to a method shown below.
Specifically, 0.2 mL in total of a solution containing 0.02 mL of 1 μM dUTP (including 588 Bq/mL [5-3H]dUTP), 0.05 mL of a 0.2 M Tris buffer solution (pH 7.4), 0.05 mL of 16 mM magnesium chloride, 0.02 mL of 20 mM 2-mercaptoethanol, 0.02 mL of a 1% aqueous solution of fetal bovine serum-derived albumin, 0.02 mL of varying concentrations of test compound solutions or pure water as a control, and 0.02 mL of a solution of human dUTPase (expressed using E. coli and purified) was reacted at 37° C. for 15 minutes. Immediately after the reaction, the solution was heated at 100° C. for 1 minute to terminate the reaction, followed by centrifugation at 15000 rpm for 2 minutes. An aliquot (150 μL) of the supernatant thus obtained by centrifugation was analyzed using an Atlantis dC18 column (manufactured by Waters Corp., 4.6×250 mm) and a high-performance liquid chromatograph (manufactured by Shimadzu Corp., Prominence). Elution was performed at a flow rate of 0.8 mL/min for 30 minutes by a concentration gradient from a 4:6 mixed solution of a mobile phase A (10 mM potassium dihydrogen phosphate (pH 6.7), 10 mM tetrabutylammonium, and 0.25% methanol) and a mobile phase B (50 mM potassium dihydrogen phosphate (pH 6.7), 5.6 mM tetrabutylammonium, and 30% methanol) to the mobile phase B. The eluate was mixed with a scintillator (manufactured by PerkinElmer Co., Ltd., Ultima-Flo AP) at a 1:2 ratio, and the radioactivity of the produced [5-^3H]dUMP (RT 10.2 min) was measured using Radiomatic Flow Scintillation Analyzer (manufactured by PerkinElmer Co., Ltd., 525TR).
The inhibitory activity of the test compound was determined according to the formula shown below.

SMILES strings stand for the structures.

Sequence of human dUTPase (P33316 94-252): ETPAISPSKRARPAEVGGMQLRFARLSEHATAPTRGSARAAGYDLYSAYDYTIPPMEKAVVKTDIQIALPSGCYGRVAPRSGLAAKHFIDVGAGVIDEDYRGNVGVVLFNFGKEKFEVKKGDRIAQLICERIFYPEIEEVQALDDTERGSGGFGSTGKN

The compound `O=c1ccn(COCCOC(c2ccccc2)(c2ccccc2)c2ccccc2)c(=O)[nH]1` [Comparative Example 1, reference compound] displayed a half-maximal inhibitory concentration (IC50) of 185000 nM.
Then `CN(C(CCn1ccc(=O)[nH]c1=O)C(=O)NO)S(=O)(=O)c1ccc(Oc2ccccc2)cc1` (stereo not shown) [Comparative Example 2, 4-(2,4-Dioxo-3,4-dihydropyrimidin-1(2H)-yl)-N-hydroxy-2-(N-methyl-4-phenoxyphenylsulfonamide)butanamide, reference compound], with 97200 nM; and `O=c1ccn(COCCCS(=O)(=O)NCc2cccc(OCC3CC3)c2)c(=O)[nH]1` [Example 1, N-(3-(cyclopropylmethoxy)benzyl)-3-((2,4-dioxo-3,4-dihydropyrimidin-1(2H)-yl)methoxy)propane-1-sulfonamide], with 330 nM.
To `C[C@@H](NS(=O)(=O)CCCOCn1ccc(=O)[nH]c1=O)c1cccc(OCC(C)(C)O)c1` [Example 2, (R)-3-((2,4-dioxo-3,4-dihydropyrimidin-1(2H)-yl)methoxy)-N-(1-(3-(2-hydroxy-2-methylpropoxy)phenyl)ethyl)propane-1-sulfonamide] belongs 1870 nM; to `CC[C@@](O)(CNS(=O)(=O)CCCOCn1ccc(=O)[nH]c1=O)c1ccc(F)c(OC2CCCC2)c1` [Example 3, (S)—N-(2-(3-(cyclopentyloxy)-4-fluorophenyl)-2-hydroxybutyl)-3-((2,4-dioxo-3,4-dihydropyrimidin-1(2H)-yl)methoxy)propane-1-sulfonamide], 870 nM; to `O=c1ccn(COCCCS(=O)(=O)NCc2cccc(OC3CCC3)c2)c(=O)[nH]1` [Example 4, N-(3-cyclobutoxybenzyl)-3-((2,4-dioxo-3,4-dihydropyrimidin-1(2H)-yl)methoxy)propane-1-sulfonamide], 610 nM.
To `C[C@@H](NS(=O)(=O)CCCOCn1ccc(=O)[nH]c1=O)c1cccc(OC2CCCC2)c1` [Example 5, (R)—N-(1-(3-(cyclopentyloxy)phenyl)ethyl)-3-((2,4-dioxo-3,4-dihydropyrimidin-1(2H)-yl)methoxy)propane-1-sulfonamide] belongs 60 nM.
On to `C[C@@H](NS(=O)(=O)CCCOCn1ccc(=O)[nH]c1=O)c1cccc(O[C@@H]2CCOC2)c1` [Example 6, 3-((2,4-dioxo-3,4-dihydropyrimidin-1(2H)-yl)methoxy)-N—((R)-1-(3-((R)-tetrahydrofuran-3-yloxy)phenyl)ethyl)propane-1-sulfonamide], for which the 50% inhibitory concentration (IC50) worked out at 460 nM.
In the case of `O=c1ccn(COCCCS(=O)(=O)NCc2ccc(F)c(OCC3CC3)c2)c(=O)[nH]1` [Example 7, N-(3-(cyclopropylmethoxy)-4-fluorobenzyl)-3-((2,4-dioxo-3,4-dihydropyrimidin-1(2H)-yl)methoxy)propane-1-sulfonamide], the half-inhibitory concentration (IC50) was 640 nM.
To `C[C@@H](NS(=O)(=O)CCCOCn1ccc(=O)[nH]c1=O)c1ccc(F)c(OCC2CC2)c1` [Example 8, (R)—N-(1-(3-(cyclopropylmethoxy)-4-fluorophenyl)ethyl)-3-((2,4-dioxo-3,4-dihydropyrimidin-1(2H)-yl)methoxy)propane-1-sulfonamide] belongs 90 nM; to `CC(C)[C@@H](NS(=O)(=O)CCCOCn1ccc(=O)[nH]c1=O)c1ccc(F)c(OCC2CC2)c1` [Example 9, (R)—N-(1-(3-(cyclopropylmethoxy)-4-fluorophenyl)-2-methylpropyl)-3-((2,4-dioxo-3,4-dihydropyrimidin-1(2H)-yl)methoxy)propane-1-sulfonamide], 40 nM; to `O=c1ccn(COCCCS(=O)(=O)NC(c2ccccc2)c2cccc(OCC3CC3)c2)c(=O)[nH]1` (stereo not shown) [Example 10, N-((3-(cyclopropylmethoxy)phenyl)(phenyl)methyl)-3-((2,4-dioxo-3,4-dihydropyrimidin-1(2H)-yl)methoxy)propane-1-sulfonamide], 160 nM.
Then `CC(NS(=O)(=O)CCCOCn1ccc(=O)[nH]c1=O)c1cccc(OCC2CC2)c1` (stereo not shown) [Example 11, N-(1-(3-(cyclopropylmethoxy)phenyl)ethyl)-3-((2,4-dioxo-3,4-dihydropyrimidin-1(2H)-yl)methoxy)propane-1-sulfonamide], with 490 nM; and `O=c1ccn(COCCCS(=O)(=O)NCc2cccc(SCC3CC3)c2)c(=O)[nH]1` [Example 12, N-(3-(cyclopropylmethylthio)benzyl)-3-((2,4-dioxo-3,4-dihydropyrimidin-1(2H)-yl)methoxy)propane-1-sulfonamide], with 2830 nM; and `C[C@@H](NS(=O)(=O)CCCOCn1ccc(=O)[nH]c1=O)c1cccc(OC2CC2)c1` [Example 13, (R)—N-(1-(3-cyclopropoxyphenyl)ethyl)-3-((2,4-dioxo-3,4-dihydropyrimidin-1(2H)-yl)methoxy)propane-1-sulfonamide], with 330 nM.
As for `CCC(CC)(NS(=O)(=O)CCCOCn1ccc(=O)[nH]c1=O)c1cccc(OCC2CC2)c1` [Example 14, N-(3-(3-(cyclopropylmethoxy)phenyl)pentan-3-yl)-3-((2,4-dioxo-3,4-dihydropyrimidin-1(2H)-yl)methoxy)propane-1-sulfonamide], the IC50 stood at 210 nM.
Take `O=c1ccn(COCCCS(=O)(=O)NC(c2ccccc2)c2cccc(OC(F)(F)C(F)F)c2)c(=O)[nH]1` (stereo not shown) [Example 15, 3-((2,4-dioxo-3,4-dihydropyrimidin-1(2H)-yl)methoxy)-N-(phenyl(3-(1,1,2,2-tetrafluoroethoxy)phenyl)methyl)propane-1-sulfonamide]: the IC50 came to 940 nM.
Then `CC(C)COc1cccc(C(NS(=O)(=O)CCCOCn2ccc(=O)[nH]c2=O)c2ccccc2)c1` (stereo not shown) [Example 16, 3-((2,4-dioxo-3,4-dihydropyrimidin-1(2H)-yl)methoxy)-N-((3-isobutoxyphenyl)(phenyl)methyl)propane-1-sulfonamide], with 600 nM; and `O=c1ccn(COCCCS(=O)(=O)NC(c2cccc(OCC3CC3)c2)c2cccc(OCC3CC3)c2)c(=O)[nH]1` [Example 17, N-(bis(3-(cyclopropylmethoxy)phenyl)methyl)-3-((2,4-dioxo-3,4-dihydropyrimidin-1(2H)-yl)methoxy)propane-1-sulfonamide], with 210 nM.
To `CC[C@H](C)COc1cccc(C(NS(=O)(=O)CCCOCn2ccc(=O)[nH]c2=O)c2ccccc2)c1` (stereo partly drawn) [Example 18, 3-((2,4-dioxo-3,4-dihydropyrimidin-1(2H)-yl)methoxy)-N-((3-((S)-2-methylbutoxy)phenyl) (phenyl)methyl)propane-1-sulfonamide] belongs 1650 nM; to `O=c1ccn(COCCCS(=O)(=O)NC(c2ccc(F)cc2)c2ccc(F)c(OCC3CC3)c2)c(=O)[nH]1` (stereo not shown) [Example 19, N-((3-(cyclopropylmethoxy)-4-fluorophenyl)(4-fluorophenyl)methyl)-3-((2,4-dioxo-3,4-dihydropyrimidin-1(2H)-yl)methoxy)propane-1-sulfonamide], 240 nM; to `CCC(CC)(NS(=O)(=O)CCCOCn1ccc(=O)[nH]c1=O)c1ccc(F)c(OCC2CC2)c1` [Example 20, N-(3-(3-(cyclopropylmethoxy)-4-fluorophenyl)pentan-3-yl)-3-((2,4-dioxo-3,4-dihydropyrimidin-1(2H)-yl)methoxy)propane-1-sulfonamide], 190 nM.

The values above are taken from patent US8530490B2, “Uracil compound or salt thereof having human deoxyuridine triphosphatase inhibitory activity” (Taiho Pharmaceutical Co., Ltd., priority 2008, dated 2013).
